Assay results as given in patent US9549965B2, “Pharmaceutical composition for treating a microbial infection” (HELPERBY THERAPEUTICS LIMITED, priority 2010, dated 2017).
Values after ≈ are worked out from the molar mass of the structure shown.

Key:
[1] = test system: stationary phase S. aureus; experiment: Bactericidal activity against stationary phase S. aureus (CFU counts); format: cell-based, Staphylococcus aureus; conditions: Staphylococcus aureus, read-out: Log Kill
Method: Staphylococcus aureus (Oxford strain); Gram positive; Reference strain.
(§1) Bacteria were grown in 10 ml of nutrient broth (No. 2 (Oxoid)) overnight at 37° C., with continuous shaking at 120 rpm. The overnight cultures were diluted (1000×) in 100 ml of growth medium and then incubated without shaking for 10 days. Viability of the bacteria was estimated by colony forming unit (CFU) counts at 2 hour intervals at the first 24 hours and at 12-24 hours afterwards. From serial 10-fold dilutions of the experimental cultures, 100 μl samples were added to triplicate plates of nutrient agar plates (Oxoid) and blood agar plates (Oxoid). Colony forming units (CFU) were counted after incubation of the plates at 37° C. for 24 hours.
(§2) Cultures incubated for more than 24 hours are in the stationary phase. For drug screening, 5-6 day old stationary phase cultures were used.
(§3) Different concentrations of each test compound were incubated with stationary phase cultures (5-6 day cultures) in 96 well plates for 24 or 48 hours. Bactericidal activity was then determined by taking CFU counts of the resulting cultures, as described above.

[2] = test system: stationary phase E. coli; experiment: Bactericidal activity against stationary phase E. coli (CFU counts); format: cell-based, Escherichia coli; conditions: Escherichia coli, read-out: Log kill
Method: (§4) Escherichia coli K12; Gram negative; Reference strain.
as §1, §2, §3

[3] = test system: log phase E. coli; experiment: MIC against log phase E. coli; format: cell-based, Escherichia coli; conditions: Escherichia coli, read-out: MIC
Method: as §4
The above-described overnight cultures were diluted (1000×) with iso-sensitest broth. The cultures were then incubated at 37° C. with shaking for 1-2 hours to reach log CFU 6, which served as log phase cultures.
The bactericidal activity of the drugs against log phase cultures were determined by minimal inhibitory concentration (MIC) of the drugs, which is defined as the lowest concentration which inhibits visible growth. Different concentrations of each test compound were incubated with the log-phase cultures in 96 well plates for 24 hours. Bactericidal activity was then examined by taking a spectrophotometer reading (using a plate reader) at 405 nm.

[4] = test system: stationary phase P. aeruginosa; experiment: Bactericidal activity against stationary phase P. aeruginosa; format: cell-based, Pseudomonas aeruginosa
Method: as §1, with “Pseudomonas aeruginosa NCTC 6751; Gram negative; Reference strain. Bacteria” for “Bacteria”, “hours. Cultures incubated for more than 24 hours are in the stationary phase. For drug screening, 5-6 day old stationary phase cultures were used. Different concentrations of each test compound were incubated with stationary phase cultures (5-6 day cultures) in 96 well plates for 24 or 48 hours. Bactericidal activity was then determined by taking CFU counts of the resulting cultures, as described above.” for “hours.”

[5] = test system: persistent E. coli; experiment: Bactericidal activity against persistent E. coli selected by gentamicin; format: cell-based, Escherichia coli; conditions: Escherichia coli, read-out: Log Kill
Method: as §4
An antibiotic (gentamicin) was added to 5-6 day stationary-phase cultures to the final concentration of 50 to 100 μg/ml for 24 hours. After 24 hours of antibiotic treatment, the cells are washed 3 times with phosphate buffered saline (PBS), and then resuspended in PBS. The surviving bacterial cells are used as persisters. Viability is estimated by CFU counts. The persisters were then used in measurements of bactericidal activity for test compounds.
Different concentrations of each test compound were incubated with the (persister) cell suspension in 96 well plates for various periods of time (24 and 48 hours). Bactericidal activity was then determined by taking CFU counts of the resulting cultures, as described above.

[6] = test system: NDM-1 Klebsiella pneumoniae; experiment: Chequerboard analysis with colistin against NDM-1 Klebsiella pneumoniae; format: cell-based
[7] = test system: clinically latent microorganisms; experiment: Screening for ability to kill clinically latent microorganisms (method of WO2000028074); format: cell-based
Text: International Patent Application, Publication Number WO2000028074 describes a method of screening compounds to determine their ability to kill clinically latent microorganisms. […] This observation has necessitated the development of novel antimicrobials which may be used to kill clinically latent microorganisms.
By way of example, WO2000028074 describes a suitable method of screening compounds to determine their ability to kill clinically latent microorganisms. A typical method may include the following steps: • (1) growing a bacterial culture to stationary phase; • (2) treating the stationary phase culture with one or more antimicrobial agents at a concentration and or time sufficient to kill growing bacteria, thereby selecting a phenotypically resistant sub-population; • (3) incubating a sample of the phenotypically resistant subpopulation with one or more test compounds or agents; and • (4) assessing any antimicrobial effects against the phenotypically resistant subpopulation.

OC(c1cc(C(F)(F)F)nc2c(C(F)(F)F)cccc12)C1CCCCN1 (stereo not drawn) [Mefloquine] was tested, and the log reduction at 6.25 µg/mL ([1]; 6.25 μg/ml) was -0.01, the log reduction at 12.5 µg/mL ([1]; 12.5 μg/ml) was 6.03 and the log reduction at 25 µg/mL ([1]; 25 μg/ml) was 6.03. For the same compound, the log reduction at 6.25 µg/mL ([2]; 6.25 μg/ml) was 2.48, the log reduction at 12.5 µg/mL ([2]; 12.50 μg/ml) was 6.14 and the log reduction at 25 µg/mL ([2]; 25.00 μg/ml) was 6.14. For the same compound, the MIC [3] was 10 µg/mL (≈ 26.4 µM), the “log reduction of the bacterium” value ([4]; 40 μg/ml) was “about 1.5 log” and the organism removed ([4]; 80 μg/ml) was “more than 10^7”. For the same compound, the “activity against stationary phase P. aeruginosa” value ([4]; FIG. 1) was “active”, the log reduction at 6.25 µg/mL ([5]; 6.25 μg/ml) was 0.02 and the log reduction at 12.5 µg/mL ([5]; 12.5 μg/ml) was 0.03. It also gave a log reduction at 25 µg/mL ([5]; 25 μg/ml) of 6.21, a spectrophotometer reading ([6]; mefloquine 0.25 mg/L alone) of 1.10 and a spectrophotometer reading ([6]; mefloquine 0.5 mg/L alone) of 1.08. It also gave a spectrophotometer reading ([6]; mefloquine 1 mg/L alone) of 1.10, a spectrophotometer reading ([6]; mefloquine 2 mg/L alone) of 1.09 and a spectrophotometer reading ([6]; mefloquine 4 mg/L alone) of 1.09. For the same compound, the spectrophotometer reading ([6]; mefloquine 8 mg/L alone) was 1.15, the spectrophotometer reading ([6]; mefloquine 16 mg/L alone) was 1.10 and the spectrophotometer reading ([6]; mefloquine 32 mg/L alone) was 0.82. The spectrophotometer reading ([6]; mefloquine 64 mg/L alone) was 0.60, the spectrophotometer reading ([6]; mefloquine 128 mg/L alone) was 0.33 and the spectrophotometer reading ([6]; mefloquine 256 mg/L alone) was 0.34.

For CC[C@H]1OC(=O)[C@H](C)[C@@H](O[C@H]2C[C@@](C)(OC)[C@@H](O)[C@H](C)O2)[C@H](C)[C@@H](O[C@@H]2O[C@H](C)C[C@H](N(C)C)[C@H]2O)[C@](C)(O)C[C@@H](C)CN(C)[C@H](C)[C@@H](O)[C@]1(C)O [azithromycin], the “activity against clinically latent microorganisms” value [7] was “little or no activity”.

In the case of CC(=O)NC[C@H]1CN(c2ccc(N3CCOCC3)c(F)c2)C(=O)O1 [linezolid], the “activity against clinically latent microorganisms” value [7] is reported as “little or no activity”.

For C/C(=C\C(=O)OCCCCCCCCC(=O)O)C[C@@H]1OC[C@H](C[C@@H]2O[C@H]2[C@@H](C)[C@H](C)O)[C@@H](O)[C@H]1O [mupirocin], the “activity against clinically latent microorganisms” value [7] was “little or no activity”.
